# Experimental data: US20230012420A1, “METHODS AND COMPOSTIONS FOR INHIBITING P97” (California Institute of Technology, priority 2021, published 2023)
# Tests used:
# Format in all cases: cell-based, human
# p97^R155H/+ MNs [1] = test: MN cell survival assay (Calcein AM live cell staining); settings: 400 nM, treated at 14 dpm for 6 days, read at 20 dpm, vs DMSO (FIG. 5A)
# Procedure: The maturation of MNs was followed using a 14 day protocol from BrainXell. Briefly, the MNs were thawed and plated on poly-lysine (Sigma, cat #P7886) coated plates in MN maturation medium containing DMEM/F12 (Gibco, cat #11330-032) and neurobasal medium (1:1 v/v), 2% 50× B27, 1% 100× N2, 0.25% 100× Glutamax, 10 ng/mL BDNF (Peprotech, cat #450-02), 10 ng/mL GDNF(Peprotech, cat #450-10), 1 ng/mL TGF-β1 (Peprotech, cat #100-21c), and 1× Brainfast supplement (BrainXell). The medium was changed with the same medium containing 15 μg/mL geltrex on day 1. An equal volume of maturation medium (excluding Geltrex) was added on day 4. Half of the medium (excluding the Brainfast supplement and Geltrex) was changed twice weekly from day 7. The MNs can be maintained for at least three weeks. […] NMS-873, cat #406458), or same volume of DMSO at D14, and then incubated for 6 days. The cells were harvested on D20. […] Cell viability was monitored every 3 or 4 days by staining with Calcein AM Viability Dye (Thermo, cat #65-0853-81), acquiring and analyzing images with ImageXpress Micro Confocal High-Content Imaging System (Molecular Devices). […] Cell viability was monitored at day 1 and day 14. […]
# iso p97^R155H/+ MNs = test: MN cell survival assay (live cell staining), isogenic mutant line; settings: 100 nM for 6 days, vs DMSO (FIG. 5B)
# Procedure: To compare p97 WT and […]/+ cells, MNs were thawed and plated on poly-lysine coated 96-well plates (Greiner, cat #655090) at a density of 1000 cells per 100 μL per well in MN maturation medium as described in the “motor neuron differentiation and maturation” section. Medium was changed with 100 μL of the same medium containing 15 μg/mL geltrex on day 1. 100 μL additional medium (excluding Geltrex) was added on day 4. Half of the medium (excluding the Brainfast supplement and Geltrex) was changed on day 7 and 11. 200 nM Ara-C was added to inhibit non-MN cells from proliferating. On day 14, the medium was replaced with N2 medium (DMEM/F12 and neurobasal medium, 1:1 v/v, 1% 100× N2). N2 medium was changed every six days. Cell viability was monitored every 3 or 4 days by staining with Calcein AM Viability Dye (Thermo, cat #65-0853-81), acquiring and analyzing images with ImageXpress Micro Confocal High-Content Imaging System (Molecular Devices). For p97 inhibitor treatment, MNs were plated on poly-lysine coated 384-well plates (Greiner, cat #781946) at a density of 500 cells per 30 μL per well. The same medium was used for plating and maintaining cells. Cell viability was monitored at day 1 and day 14. […]
# p97^R155H/+ MNs [2] = test: Western blot of dysregulated protein levels after p97 inhibitor treatment; settings: 400 nM for 6 days, 20 dpm (FIG. 5C)
# Procedure: The maturation of MNs was followed using a 14 day protocol from BrainXell. Briefly, the MNs were thawed and plated on poly-lysine (Sigma, cat #P7886) coated plates in MN maturation medium containing DMEM/F12 (Gibco, cat #11330-032) and neurobasal medium (1:1 v/v), 2% 50× B27, 1% 100× N2, 0.25% 100× Glutamax, 10 ng/mL BDNF (Peprotech, cat #450-02), 10 ng/mL GDNF(Peprotech, cat #450-10), 1 ng/mL TGF-β1 (Peprotech, cat #100-21c), and 1× Brainfast supplement (BrainXell). The medium was changed with the same medium containing 15 μg/mL geltrex on day 1. An equal volume of maturation medium (excluding Geltrex) was added on day 4. Half of the medium (excluding the Brainfast supplement and Geltrex) was changed twice weekly from day 7. The MNs can be maintained for at least three weeks. […] NMS-873, cat #406458), or same volume of DMSO at D14, and then incubated for 6 days. The cells were harvested on D20. MN cells were scraped off plates, washed with DPBS, and centrifuged at 300 g for 4 min to remove supernatant. Pellets were frozen at −80° C. Pellets were resuspended with 100 lysis buffer (50 mM Tris-HCl pH 8.0, 150 mM NaCl, 1% Triton X-100 with protease inhibitor tablet, 50 μM MG132, and 50 mM NEM), and incubated on ice for 10 min with occasional vortexing. After that, samples were centrifuged at 15000 rpm at 4° C. for 10 min and transferred 90 μL cell lysate into a 1.5 mL tube. Total soluble protein concentrations were measured using the Bradford test (Bio-Rad, cat #5000006). 30 μL 4×Laemmli sample buffer (Bio-Rad, cat #161-0774) was added and samples were boiled for 5 min. An equal amount of protein was loaded and separated using 4-20% Mini-PROTEAN TGX precast gels (Bio-Rad, cat #456-1096) and transferred to nitrocellulose membranes using Trans-Blot Turbo Transfer System (Bio-Rad, cat #170-4155). Membranes were blocked with 1×TBST with 5% w/v nonfat milk, incubated with primary antibodies for 2 h at room temperature or overnight at 4° C., and incubated with HRP-conjugated secondary antibodies (Bio-Rad, 1:3000 dilution) for 2 h at room temperature. […] The blot densities were analyzed using Image Lab 6.0.1 software (Bio-Rad).
# p97^R155H/+ MNs [3] = test: Proteomic analysis (LC-MS/MS) of D20 MNs after p97 inhibitor treatment; settings: for Tau and MCM6 (proteomics): 6 days of treatment, 400 nM; for number of the 440 downregulated proteins that were increased after treatment / number of the 920 upregulated proteins that were reduced after treatment: 6 days, count stated for treatment with CB-5083 or NMS-873 (FIG. 5E)
# Procedure: The maturation of MNs was followed using a 14 day protocol from BrainXell. Briefly, the MNs were thawed and plated on poly-lysine (Sigma, cat #P7886) coated plates in MN maturation medium containing DMEM/F12 (Gibco, cat #11330-032) and neurobasal medium (1:1 v/v), 2% 50× B27, 1% 100× N2, 0.25% 100× Glutamax, 10 ng/mL BDNF (Peprotech, cat #450-02), 10 ng/mL GDNF(Peprotech, cat #450-10), 1 ng/mL TGF-β1 (Peprotech, cat #100-21c), and 1× Brainfast supplement (BrainXell). The medium was changed with the same medium containing 15 μg/mL geltrex on day 1. An equal volume of maturation medium (excluding Geltrex) was added on day 4. Half of the medium (excluding the Brainfast supplement and Geltrex) was changed twice weekly from day 7. The MNs can be maintained for at least three weeks. […] NMS-873, cat #406458), or same volume of DMSO at D14, and then incubated for 6 days. The cells were harvested on D20. After culture, MN cells were scraped off the plates, washed with DPBS, and centrifuged at 300 g for 4 min to remove supernatant. Pellets were frozen at -80° C. The mass spec samples were prepared by following instructions for the […] Sample Prep Kit (Thermo Scientific, cat #A4006). Samples were dried using a vacuum centrifuge and resuspended in 0.1% formic acid (Thermo, cat #85178) water solution. Peptide concentrations were measured using the Quantitative Fluorometric Peptide Assay kit (Thermo, cat #23290). LC-MS/MS experiments were performed by loading 0.5 μg sample onto an EASY-nLC 1000 (Thermo Scientific) connected to an Orbitrap Eclipse Tribrid mass spectrometer (Thermo Scientific). Peptides were separated on an Aurora UHPLC Column (25 cm×75 μm, 1.6 μm C18, AUR2-25075C18A, Ion Opticks) with a flow rate of 0.4 μL/min and a total duration time of 131 min following the gradient composed of 3% Solvent B for 1 min, 3-19% B for 72 min, 19-29% B for 28 min, 29-41% B for 20 min, 41-95% B for 3 min, and 95-98% B for 7 min. Solvent A consists of 97.8% H2O, 2% ACN, and 0.2% formic acid; solvent B consists of 19.8% H2O, 80% ACN, and 0.2% formic acid. MS1 scans were acquired with a range of 400-1600 m/z in the Orbitrap at 120 k resolution. The maximum injection time was 50 ms, and the AGC target was 2×105. The filter dynamic exclusion was set to exclude after 1 time, 30 s duration, and 10 ppm mass tolerance. MS2 scans were acquired with quadrupole isolation mode and higher-energy collisional dissociation (HCD) activation type in the Iontrap. The isolation window was 1.4 m/z, collision energy was 35%, maximum injection time was 35 ms, and the AGC target was 1×104. Other global settings were as below: ion source type, NSI; spray voltage, positive ion 2400 V, negative ion 600 V; ion transfer tube temperature, 300° C. Method modifications and data collection were performed using Xcalibur software (Thermo Scientific). Proteomic analysis was performed using Proteome Discoverer 2.4 (Thermo Scientific) software with the Uniprot human database and the SequestHT with Percolator validation. Protein abundance normalization was performed on total peptide. The data exported from PD2.4 were then used for further analysis. Limma analysis was performed using R studio following the user guide (Gordon, 2020). The volcano figures were plotted using Origin 2019b. PCA analyses were generated with PD2.4 and plotted using Prism 7. The Venn diagram was performed using FunRich 3.1. The heatmap figure was performed with prism 7. Functional enrichment analyses were performed with g:Profiler (Raudvere, 2019). The bubble plot was generated using Origin 2019b.
Structure (SMILES),"loss of MNs (neuron loss, live cell staining) (p97^R155H/+ MNs [1])","loss of MNs (neuron loss, live cell staining) (iso p97^R155H/+ MNs)",LC3 level (western blot) (p97^R155H/+ MNs [2]),"protein levels of ISL1, NES, Tau, pTau, MCM6, p53, y-H2Ax (western blot) (p97^R155H/+ MNs [2])",Tau and MCM6 (proteomics) (p97^R155H/+ MNs [3]),number of the 440 downregulated proteins that were increased after treatment (p97^R155H/+ MNs [3]),number of the 920 upregulated proteins that were reduced after treatment (p97^R155H/+ MNs [3])
Cc1cc2c(C(N)=O)cccc2n1-c1nc2c(c(NCc3ccccc3)n1)COCC2 [CB-5083],significantly reduced the loss of MNs,significantly reduced the loss of MNs,slightly elevated,reversed increases,reduced,192,428
"Cc1cc(OCc2nnc(SC3CCCC3)n2-c2cccnc2)ccc1-c1ccc(S(C)(=O)=O)cc1 [NMS-873, 3-[3-cyclopentylsulfanyl-5-[[3-methyl-4-(4-methylsulfonylphenyl)phenoxy]methyl]-1,2,4-triazol-4-yl]pyridine]",significantly reduced the loss of MNs,significantly reduced the loss of MNs,slightly elevated,reversed increases,reduced,192,428
